Measured values as given in ChEMBL document CHEMBL1201862, “PubChem BioAssay data set” (2004).
Active and inactive are the calls of the source.

Legend:
[1] = target: Peroxisome proliferator-activated receptor gamma/Nuclear receptor coactivator 3 (Homo sapiens, UniProt P37231); experiment: TR-FRET dose response biochemical High Throughput Screening assay for agonists of the steroid receptor coactivator 3 (SRC-3) recruitment by the peroxisome proliferator-activated receptor gamma (PPAR gamma): non-selective agonists. [Related pubchem assays: 1301 (Confirmation screen.), 1048 (Primary screen.)]; format: functional
Sequence of Peroxisome proliferator-activated receptor gamma/Nuclear receptor coactivator 3 (P37231 whole entry): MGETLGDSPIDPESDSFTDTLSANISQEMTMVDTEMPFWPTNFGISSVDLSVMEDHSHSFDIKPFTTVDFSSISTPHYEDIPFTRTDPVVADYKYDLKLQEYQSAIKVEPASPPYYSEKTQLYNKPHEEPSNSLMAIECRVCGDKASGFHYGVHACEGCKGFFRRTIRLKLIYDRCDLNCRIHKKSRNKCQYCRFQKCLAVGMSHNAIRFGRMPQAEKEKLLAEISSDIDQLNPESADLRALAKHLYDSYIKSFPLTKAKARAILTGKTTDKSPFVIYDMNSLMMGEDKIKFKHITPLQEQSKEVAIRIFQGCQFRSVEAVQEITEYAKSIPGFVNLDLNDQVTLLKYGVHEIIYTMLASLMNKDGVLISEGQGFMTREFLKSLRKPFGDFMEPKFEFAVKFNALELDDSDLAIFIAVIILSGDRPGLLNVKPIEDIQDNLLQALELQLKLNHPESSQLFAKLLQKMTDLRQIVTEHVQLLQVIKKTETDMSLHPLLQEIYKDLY
Sequence of Peroxisome proliferator-activated receptor gamma/Nuclear receptor coactivator 3 (Q9Y6Q9 whole entry, further chain): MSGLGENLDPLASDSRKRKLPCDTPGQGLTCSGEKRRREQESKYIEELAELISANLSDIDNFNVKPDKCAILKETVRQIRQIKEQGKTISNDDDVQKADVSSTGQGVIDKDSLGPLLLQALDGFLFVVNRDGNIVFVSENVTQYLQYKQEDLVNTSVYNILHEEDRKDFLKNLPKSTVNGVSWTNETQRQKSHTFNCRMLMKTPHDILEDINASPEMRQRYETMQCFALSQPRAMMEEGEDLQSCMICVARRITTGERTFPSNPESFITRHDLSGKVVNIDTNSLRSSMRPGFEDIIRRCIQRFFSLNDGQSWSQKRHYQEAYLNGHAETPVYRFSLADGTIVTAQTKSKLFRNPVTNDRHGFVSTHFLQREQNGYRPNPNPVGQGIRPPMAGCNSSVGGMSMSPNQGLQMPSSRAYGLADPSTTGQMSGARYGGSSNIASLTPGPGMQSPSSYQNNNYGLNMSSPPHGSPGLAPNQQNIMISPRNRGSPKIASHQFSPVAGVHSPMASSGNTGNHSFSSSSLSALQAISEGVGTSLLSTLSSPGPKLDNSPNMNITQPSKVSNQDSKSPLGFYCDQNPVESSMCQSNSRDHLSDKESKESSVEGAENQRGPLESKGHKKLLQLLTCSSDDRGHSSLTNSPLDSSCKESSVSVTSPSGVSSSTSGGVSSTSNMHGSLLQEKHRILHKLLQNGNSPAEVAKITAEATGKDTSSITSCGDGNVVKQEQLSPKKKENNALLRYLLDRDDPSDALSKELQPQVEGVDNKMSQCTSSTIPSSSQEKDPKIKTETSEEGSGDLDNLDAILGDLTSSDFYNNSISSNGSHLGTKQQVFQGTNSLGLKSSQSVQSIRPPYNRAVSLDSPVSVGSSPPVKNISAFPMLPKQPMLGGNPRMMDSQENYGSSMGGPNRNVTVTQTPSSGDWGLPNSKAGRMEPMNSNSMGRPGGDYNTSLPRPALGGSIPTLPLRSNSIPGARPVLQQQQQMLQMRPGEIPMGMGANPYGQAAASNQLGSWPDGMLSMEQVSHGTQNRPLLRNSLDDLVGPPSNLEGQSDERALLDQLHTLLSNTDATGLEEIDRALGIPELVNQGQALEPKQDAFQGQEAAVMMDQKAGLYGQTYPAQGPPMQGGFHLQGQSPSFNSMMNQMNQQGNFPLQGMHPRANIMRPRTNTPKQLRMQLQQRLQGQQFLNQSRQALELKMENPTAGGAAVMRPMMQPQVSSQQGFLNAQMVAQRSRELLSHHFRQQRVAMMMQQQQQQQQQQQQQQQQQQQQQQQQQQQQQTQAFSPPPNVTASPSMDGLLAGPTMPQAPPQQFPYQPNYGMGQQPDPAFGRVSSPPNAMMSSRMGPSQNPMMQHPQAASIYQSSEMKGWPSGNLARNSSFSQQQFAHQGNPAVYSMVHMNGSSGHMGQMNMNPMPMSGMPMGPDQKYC

[2] = target: Peroxisome proliferator-activated receptor gamma/Nuclear receptor coactivator 2 (Homo sapiens, UniProt P37231); experiment: (§1) TR-FRET dose response biochemical High Throughput Screening assay for agonists of the steroid receptor coactivator 2 (SRC-2) recruitment by the peroxisome proliferator-activated receptor gamma (PPAR gamma): non-selective agonists. [Related pubchem assays: 1297, 1032 ]; format: functional
[3] = target: Peroxisome proliferator-activated receptor gamma/Nuclear receptor coactivator 1 (Homo sapiens, UniProt P37231); experiment: as §1, with “1 (SRC-1)” for “2 (SRC-2)”, “assays (depositor defined):AID1300, AID1808, AID504735, AID631]” for “assays: 1297, 1032 ]”; format: protein assay
Sequence of Peroxisome proliferator-activated receptor gamma/Nuclear receptor coactivator 1 (P37231 whole entry): as the sequence (P37231 whole entry) above
Sequence of Peroxisome proliferator-activated receptor gamma/Nuclear receptor coactivator 1 (Q15788 whole entry, further chain): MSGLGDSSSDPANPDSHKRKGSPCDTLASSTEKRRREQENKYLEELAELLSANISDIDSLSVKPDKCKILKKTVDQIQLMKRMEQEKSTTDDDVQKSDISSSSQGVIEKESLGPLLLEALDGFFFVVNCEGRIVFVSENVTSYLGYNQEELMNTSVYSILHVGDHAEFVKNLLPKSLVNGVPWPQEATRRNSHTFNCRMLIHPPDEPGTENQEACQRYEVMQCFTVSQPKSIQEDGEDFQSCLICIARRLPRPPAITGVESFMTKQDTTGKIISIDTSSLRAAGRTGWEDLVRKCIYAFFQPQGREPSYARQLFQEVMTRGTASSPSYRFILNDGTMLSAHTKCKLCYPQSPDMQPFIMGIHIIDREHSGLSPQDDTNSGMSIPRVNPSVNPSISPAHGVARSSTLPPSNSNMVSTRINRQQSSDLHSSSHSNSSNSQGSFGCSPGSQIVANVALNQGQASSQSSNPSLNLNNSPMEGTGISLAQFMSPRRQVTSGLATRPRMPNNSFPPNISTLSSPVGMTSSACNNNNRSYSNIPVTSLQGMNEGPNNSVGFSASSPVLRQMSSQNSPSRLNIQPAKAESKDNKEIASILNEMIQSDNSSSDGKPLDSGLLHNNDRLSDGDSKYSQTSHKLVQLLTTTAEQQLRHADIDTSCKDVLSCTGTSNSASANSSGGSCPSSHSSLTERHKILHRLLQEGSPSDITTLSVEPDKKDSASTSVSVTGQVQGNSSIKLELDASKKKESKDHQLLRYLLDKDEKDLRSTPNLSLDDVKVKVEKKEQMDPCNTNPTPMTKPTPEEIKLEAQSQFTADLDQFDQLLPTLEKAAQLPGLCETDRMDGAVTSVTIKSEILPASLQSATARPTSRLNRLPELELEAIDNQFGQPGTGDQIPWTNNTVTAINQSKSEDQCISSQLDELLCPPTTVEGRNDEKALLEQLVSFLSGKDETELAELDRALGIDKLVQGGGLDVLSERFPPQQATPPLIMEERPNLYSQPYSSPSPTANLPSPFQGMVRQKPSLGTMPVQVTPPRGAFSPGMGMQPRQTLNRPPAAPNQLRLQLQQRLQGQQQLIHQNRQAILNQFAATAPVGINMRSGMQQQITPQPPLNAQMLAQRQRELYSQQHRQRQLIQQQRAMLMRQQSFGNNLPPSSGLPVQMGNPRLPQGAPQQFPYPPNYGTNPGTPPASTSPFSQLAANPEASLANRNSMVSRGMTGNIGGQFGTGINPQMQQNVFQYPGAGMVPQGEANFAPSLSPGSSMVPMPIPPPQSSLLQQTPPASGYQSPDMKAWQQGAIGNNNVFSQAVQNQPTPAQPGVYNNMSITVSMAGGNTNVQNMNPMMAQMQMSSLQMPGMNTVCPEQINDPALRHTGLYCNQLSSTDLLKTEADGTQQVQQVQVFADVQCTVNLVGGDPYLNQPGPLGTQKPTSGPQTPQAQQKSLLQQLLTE

[4] = Luminescence Cell-Based Dose Retest to Confirm Inhibitors of Cancer Stem Cells. [Related pubchem assays (depositor defined):AID2717, AID2721]; format: functional, Homo sapiens; settings: Homo sapiens
INS1 = experiment: beta cell apoptosis inhibitors, cytokine rescue, dose response, luminescence, retest (AID 449756); format: functional, cell-based; settings: Rattus norvegicus;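 further: cell death triggered by IL-1 beta plus TNF-alpha plus IFN-gamma mixture; protective hits raise ATP signal compared with cytokine alone wells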
Hexokinase HKDC1 = target: T1, Hexokinase HKDC1 (Homo sapiens, UniProt Q2TB90); experiment: HKDC1 hexokinase activators, dose response, biochemical, W721R variant (AID 504730); format: functional
T1 sequence (Q2TB90 whole entry): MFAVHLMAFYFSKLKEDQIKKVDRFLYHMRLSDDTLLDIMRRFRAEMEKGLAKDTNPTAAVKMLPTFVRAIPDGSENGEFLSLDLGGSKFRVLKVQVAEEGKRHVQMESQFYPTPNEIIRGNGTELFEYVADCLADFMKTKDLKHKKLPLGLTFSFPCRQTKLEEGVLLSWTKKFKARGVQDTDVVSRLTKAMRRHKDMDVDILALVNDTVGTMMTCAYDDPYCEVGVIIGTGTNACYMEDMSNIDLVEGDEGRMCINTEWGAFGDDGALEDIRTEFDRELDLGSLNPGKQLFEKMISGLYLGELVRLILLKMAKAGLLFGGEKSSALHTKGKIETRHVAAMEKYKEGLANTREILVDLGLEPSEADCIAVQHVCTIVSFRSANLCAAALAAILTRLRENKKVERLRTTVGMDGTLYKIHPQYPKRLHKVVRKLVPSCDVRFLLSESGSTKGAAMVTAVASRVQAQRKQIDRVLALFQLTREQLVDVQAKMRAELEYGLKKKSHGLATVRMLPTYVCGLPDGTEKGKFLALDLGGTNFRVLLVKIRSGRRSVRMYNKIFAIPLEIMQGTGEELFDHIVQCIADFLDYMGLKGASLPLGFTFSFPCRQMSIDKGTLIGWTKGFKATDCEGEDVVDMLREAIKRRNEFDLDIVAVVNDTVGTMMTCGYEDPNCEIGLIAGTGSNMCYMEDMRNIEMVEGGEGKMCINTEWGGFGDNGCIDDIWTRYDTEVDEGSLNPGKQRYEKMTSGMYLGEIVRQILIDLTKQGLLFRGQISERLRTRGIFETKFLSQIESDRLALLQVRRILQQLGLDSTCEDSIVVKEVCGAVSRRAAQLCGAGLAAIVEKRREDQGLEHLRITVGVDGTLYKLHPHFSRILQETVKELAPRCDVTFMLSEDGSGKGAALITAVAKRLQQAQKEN

Hexokinase-1 = target: T2, Hexokinase-1 (Homo sapiens, UniProt P19367); experiment: hexokinase 1 activators, dose response, selectivity assay for HKDC1 activator project, biochemical (AID 504762); format: functional
T2 sequence (P19367 whole entry): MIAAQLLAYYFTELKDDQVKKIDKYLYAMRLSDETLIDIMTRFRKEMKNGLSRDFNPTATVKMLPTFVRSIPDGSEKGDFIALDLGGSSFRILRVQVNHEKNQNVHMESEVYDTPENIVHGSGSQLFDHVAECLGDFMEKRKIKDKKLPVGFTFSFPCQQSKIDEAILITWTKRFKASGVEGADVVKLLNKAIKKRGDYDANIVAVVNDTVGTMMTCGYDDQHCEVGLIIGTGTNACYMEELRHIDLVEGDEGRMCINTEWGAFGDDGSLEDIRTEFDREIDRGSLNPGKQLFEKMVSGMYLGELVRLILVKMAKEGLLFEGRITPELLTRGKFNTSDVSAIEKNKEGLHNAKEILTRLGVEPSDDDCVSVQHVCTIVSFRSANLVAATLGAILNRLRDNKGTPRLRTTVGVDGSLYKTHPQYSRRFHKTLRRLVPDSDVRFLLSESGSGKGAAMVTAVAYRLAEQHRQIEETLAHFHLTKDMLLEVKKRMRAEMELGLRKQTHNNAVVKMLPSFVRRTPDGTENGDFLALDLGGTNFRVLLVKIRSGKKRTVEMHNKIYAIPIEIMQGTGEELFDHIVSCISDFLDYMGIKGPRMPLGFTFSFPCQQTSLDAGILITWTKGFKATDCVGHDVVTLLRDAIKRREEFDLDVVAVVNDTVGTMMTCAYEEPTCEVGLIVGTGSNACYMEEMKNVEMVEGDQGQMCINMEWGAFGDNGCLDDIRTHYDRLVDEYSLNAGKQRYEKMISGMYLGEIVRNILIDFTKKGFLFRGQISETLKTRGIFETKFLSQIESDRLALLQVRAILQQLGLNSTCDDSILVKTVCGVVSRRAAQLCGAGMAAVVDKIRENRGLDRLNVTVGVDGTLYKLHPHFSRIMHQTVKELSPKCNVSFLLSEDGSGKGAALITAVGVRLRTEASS

[5] = target: Luciferin 4-monooxygenase (Photinus pyralis, UniProt P08659); experiment: firefly luciferase enzyme inhibitors, dose response, biochemical, luminescence (AID 1891)
[6] = target: DNA dC->dU-editing enzyme APOBEC-3G (Homo sapiens, UniProt Q9HC16); experiment: Dose Response confirmation of small molecule APOBEC3G DNA Deaminase Inhibitors via a fluorescence-based single-stranded DNA deaminase assay. [Related pubchem assays (depositor defined):AID493012, AID493028]; format: functional
[7] = target: T3, RNA-binding protein pos-1 (Caenorhabditis elegans, UniProt G5EF15); experiment: inhibitors of POS-1/mex-3 RNA binding, dose response, biochemical, fluorescence polarization (AID 1964);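 further: purified POS-1 fused to maltose binding protein made in E. coli; potency of compounds blocking POS-1 binding to fluorescent RNA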
T3 sequence (G5EF15 whole entry): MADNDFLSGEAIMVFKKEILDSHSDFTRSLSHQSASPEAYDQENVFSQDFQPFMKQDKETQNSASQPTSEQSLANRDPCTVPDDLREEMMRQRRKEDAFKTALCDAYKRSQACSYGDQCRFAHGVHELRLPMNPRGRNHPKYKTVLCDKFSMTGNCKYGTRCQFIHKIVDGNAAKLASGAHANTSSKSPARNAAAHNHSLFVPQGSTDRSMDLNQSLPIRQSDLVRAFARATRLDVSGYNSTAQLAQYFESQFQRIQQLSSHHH

[8] = target: T4, Trace amine-associated receptor 1 (Homo sapiens, UniProt Q96RJ0); experiment: Counterscreen for agonists of the human trace amine associated receptor 1 (hTAAR1): Fluorescence-based cell-based high throughput dose response assay to identify hTAAR1 agonist that also desensitize TAAR1 receptor response.; format: functional
T4 sequence (Q96RJ0 whole entry): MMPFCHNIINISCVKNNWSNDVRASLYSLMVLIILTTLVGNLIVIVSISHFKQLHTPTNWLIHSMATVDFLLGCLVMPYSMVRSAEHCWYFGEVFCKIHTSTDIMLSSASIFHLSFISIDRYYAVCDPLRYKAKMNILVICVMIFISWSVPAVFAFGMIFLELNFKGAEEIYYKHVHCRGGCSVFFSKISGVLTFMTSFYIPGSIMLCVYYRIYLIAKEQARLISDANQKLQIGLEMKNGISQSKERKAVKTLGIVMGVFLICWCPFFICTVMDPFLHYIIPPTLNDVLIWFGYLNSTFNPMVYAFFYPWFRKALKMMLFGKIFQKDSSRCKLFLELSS

Albumin = Albumin (Bos taurus, UniProt P02769); experiment: Counterscreen for inhibitors of T-cell receptor (TCR)-CD3 interaction: Fluorescence-based biochemical high throughput dose response assay to identify inhibitors of T-cell receptor (TCR)-CD3 interaction using a TAMRA-labeled BSA probe.; format: functional
Large T antigen = Large T antigen (Simian virus 40, UniProt P03070); format: functional, Betapolyomavirus macacae;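 further: Confirmatory-stage PubChem screen for compounds that inhibit SV40 T antigen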
SUMO-activating enzyme [9] = target: T5, SUMO-activating enzyme (Homo sapiens, UniProt Q9UBT2); experiment: SUMOylation inhibitor hit validation, confirmation, SUMOylation inhibitor project, biochemical, AlphaScreen (AID 2018); format: functional
T5 sequence (Q9UBE0 whole entry): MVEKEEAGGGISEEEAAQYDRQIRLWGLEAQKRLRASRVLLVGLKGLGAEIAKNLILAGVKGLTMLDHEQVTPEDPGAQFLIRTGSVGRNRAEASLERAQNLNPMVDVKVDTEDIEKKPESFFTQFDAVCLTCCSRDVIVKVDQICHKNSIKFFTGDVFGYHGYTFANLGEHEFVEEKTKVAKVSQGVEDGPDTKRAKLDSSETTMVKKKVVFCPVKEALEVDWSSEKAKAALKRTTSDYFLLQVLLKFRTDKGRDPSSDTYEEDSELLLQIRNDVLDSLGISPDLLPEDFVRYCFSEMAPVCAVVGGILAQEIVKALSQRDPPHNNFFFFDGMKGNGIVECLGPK
T5 sequence (Q9UBT2 whole entry): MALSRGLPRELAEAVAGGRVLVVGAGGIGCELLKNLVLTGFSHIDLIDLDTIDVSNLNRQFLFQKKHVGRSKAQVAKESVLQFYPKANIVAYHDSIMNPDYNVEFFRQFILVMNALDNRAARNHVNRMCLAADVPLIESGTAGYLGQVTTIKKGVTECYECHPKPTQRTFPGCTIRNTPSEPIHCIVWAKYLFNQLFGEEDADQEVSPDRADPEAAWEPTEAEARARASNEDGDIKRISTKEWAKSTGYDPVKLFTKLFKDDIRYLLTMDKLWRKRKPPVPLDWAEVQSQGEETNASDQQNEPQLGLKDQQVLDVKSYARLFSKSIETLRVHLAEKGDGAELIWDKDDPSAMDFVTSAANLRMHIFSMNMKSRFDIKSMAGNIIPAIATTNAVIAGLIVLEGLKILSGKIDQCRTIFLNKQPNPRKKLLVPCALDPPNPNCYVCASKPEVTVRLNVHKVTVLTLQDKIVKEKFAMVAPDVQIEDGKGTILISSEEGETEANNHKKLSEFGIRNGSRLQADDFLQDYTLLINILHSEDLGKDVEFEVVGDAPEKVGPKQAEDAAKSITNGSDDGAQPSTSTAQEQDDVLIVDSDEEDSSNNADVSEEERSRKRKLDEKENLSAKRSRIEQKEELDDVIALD

Aspartyl aminopeptidase = Aspartyl aminopeptidase (Plasmodium falciparum 3D7, UniProt Q8I2J3)
cells [10] = format: functional, cell-based
[11] = target: T6, Alkaline phosphatase, tissue-nonspecific isozyme (Homo sapiens, UniProt P05186); experiment: TNAP enzyme activators, dose response, selectivity assay for mouse IAP activator project, biochemical, TNAP isozyme, mouse IAP uHTS hits (AID 488880); format: functional
T6 sequence (P05186 whole entry): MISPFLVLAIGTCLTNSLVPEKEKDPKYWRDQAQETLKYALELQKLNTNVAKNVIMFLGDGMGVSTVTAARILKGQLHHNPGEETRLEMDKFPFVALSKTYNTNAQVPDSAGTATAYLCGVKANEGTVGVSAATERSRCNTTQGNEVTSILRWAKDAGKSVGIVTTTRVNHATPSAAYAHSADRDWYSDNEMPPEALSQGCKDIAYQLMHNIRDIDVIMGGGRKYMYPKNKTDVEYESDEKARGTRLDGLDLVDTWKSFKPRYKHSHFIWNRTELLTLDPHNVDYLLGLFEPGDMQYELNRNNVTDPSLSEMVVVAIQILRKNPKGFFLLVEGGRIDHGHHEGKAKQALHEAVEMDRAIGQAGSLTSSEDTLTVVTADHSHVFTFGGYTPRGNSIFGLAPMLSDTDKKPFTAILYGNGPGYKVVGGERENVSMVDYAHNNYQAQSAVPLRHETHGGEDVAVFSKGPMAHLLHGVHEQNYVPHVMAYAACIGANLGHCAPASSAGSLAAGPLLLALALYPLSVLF

Procathepsin L = Procathepsin L (Homo sapiens, UniProt P07711)
SUMO-activating enzyme [12] = target: T5, SUMO-activating enzyme; experiment: inhibitors of in vitro SUMOylation cascade, primary screen, biochemical, HTRF, uHTS (AID 2006); format: protein-complex assay
[13] = target: Intestinal-type alkaline phosphatase (Mus musculus, UniProt P24822); experiment: mouse intestinal alkaline phosphatase activators, dose response, biochemical, luminescence, uHTS hits (AID 488783); format: functional
[14] = target: T7, Zinc finger protein mex-5 (Caenorhabditis elegans, UniProt Q9XUB2); experiment: MEX-5/TCR-2 RNA interaction inhibitors, dose response, biochemical, C. elegans, fluorescence polarization (AID 1960)
T7 sequence (Q9XUB2 whole entry): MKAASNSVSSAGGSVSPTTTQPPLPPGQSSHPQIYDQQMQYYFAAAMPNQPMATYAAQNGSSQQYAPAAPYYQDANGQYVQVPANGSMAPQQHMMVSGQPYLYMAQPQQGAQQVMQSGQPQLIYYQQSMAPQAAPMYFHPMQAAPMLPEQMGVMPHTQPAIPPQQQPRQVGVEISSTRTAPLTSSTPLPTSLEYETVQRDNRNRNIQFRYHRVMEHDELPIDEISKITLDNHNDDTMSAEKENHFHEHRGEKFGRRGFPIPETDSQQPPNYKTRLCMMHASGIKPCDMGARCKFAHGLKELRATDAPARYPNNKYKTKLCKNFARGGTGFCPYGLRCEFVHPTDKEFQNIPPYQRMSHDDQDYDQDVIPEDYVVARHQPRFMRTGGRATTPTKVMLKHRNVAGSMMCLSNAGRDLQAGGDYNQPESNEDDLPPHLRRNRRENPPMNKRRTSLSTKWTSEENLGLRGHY

[15] = target: Intestinal-type alkaline phosphatase (Homo sapiens, UniProt P09923); experiment: activation of human intestinal alkaline phosphatase – biochemical, dose response (AID 488873); format: functional
cells [16] = format: functional, cell-based; remark: listed apart in the source
[17] = target: Dual specificity tyrosine-phosphorylation-regulated kinase 1A (Rattus norvegicus, UniProt Q63470); format: biochemical, Homo sapiens
[18] = target: T4, Trace amine-associated receptor 1; experiment: Fluorescence-based cell-based high throughput dose response assay to identify agonists of the human trace amine associated receptor 1 (TAAR1).; format: functional

CCN1CCCC1CNC(=O)CSc1cc(=O)n(CC)c2ccccc12 (stereo not drawn)
EC50 [1]: > 79.4 µM (not active)
EC50 [2]: > 79.4 µM (not active)
EC50 [3]: > 79.4 µM (inactive)

Cc1nc2c3cc(F)ccc3n(Cc3ccccc3)c2s1
AC50 [4]: 83.6 µM (active)
AC50 (INS1): > 260 µM (inactive)
EC50 (Hexokinase HKDC1): 39.2 µM (inactive)
EC50 (Hexokinase-1): 57.5 µM (inactive)

C=CCn1c(-c2cc(Cl)ccc2OC)n[nH]c1=S
EC50 [5]: > 112 µM (not active)
EC50 [1]: > 79.4 µM (not active)
IC50 [6]: 8.82 µM (active)
EC50 [2]: 28.9 µM (not active)
EC50 [3]: 21.4 µM (inactive)

O=C(N/N=C/c1ccc(O)c(O)c1)N/N=C/c1ccc(O)c(O)c1
EC50 [7]: 16.2 µM (active)
IC50 [8]: > 9.97 µM (active)
IC50 (Albumin): > 94.1 µM (inactive)
IC50 (Large T antigen): 0.73 µM (active)
IC50 (SUMO-activating enzyme [9]): 0.69 µM (active)
IC50 (Aspartyl aminopeptidase): 2.79 µM (active)
EC50 (cells [10]): > 29.9 µM (inactive)
EC50 [11]: 79.4 µM (active)
IC50 (Procathepsin L): > 59.6 µM (not active)
IC50 (SUMO-activating enzyme [12]): 2.11 µM (active)
EC50 [13]: 4.96 µM (active)
EC50 [14]: 4.86 µM (inconclusive)
EC50 [15]: 66.2 µM (active)
IC50 (cells [16]): > 29.9 µM (inactive)
AC50 [17]: 1.63 µM (active)
EC50 [18]: 0.647 µM (active)
